Test results reported in patent US20160166648A1, “Treatment of Multiple Sclerosis With Combination of Laquinimod and Interferon-Beta” (Teva Pharmaceutical Industries, Ltd., priority 2011, published 2016).
Where “and” joins values, the source holds several entries; their conditions need not be identical. Identical values can stand only once. Like-named read-outs stand apart in the source and are kept apart here.

Columns and labels:
[1] = system: MOG induced EAE in C57 BI mice; assay: Interferon-β s.c. daily alone or in combination with laquinimod in chronic MOG induced EAE; format: in vivo, C57BL/6 mice; conditions: for Activity compared to Laquinimod: Table 6
[2] = in vivo; cited from earlier work
Multiple Sclerosis = conditions: two phase III trials; cited from earlier work
[3] = Laquinimod 10 mg/kg oral QD, compared to vehicle
[4] = Laquinimod 25 mg/kg oral QD, compared to laquinimod (10 mg/kg)
[5] = Laquinimod 25 mg/kg oral QD, compared to vehicle

Structure (SMILES): CCN(C(=O)c1c(O)c2c(Cl)cccc2n(C)c1=O)c1ccccc1 [Laquinimod]
- Mean Onset [1]: 21.4 ± 8.2 days
- GMS value (group mean score) ([1]; Laquinimod 10 mg/kg oral QD): 0.8 ± 0.8 and 0.8
- Incidence ([1]; Laquinimod 10 mg/kg oral QD): 8/13
- MMS value (mean maximal score) ([1]; Laquinimod 10 mg/kg oral QD): 1.8 ± 1.7
- Mean Duration ([1]; Laquinimod 10 mg/kg oral QD): 9.2 ± 8.3 days
- Mean Onset ([1]; Laquinimod 10 mg/kg oral QD): 21.3 ± 8.2 days
- Mortality ([1]; Laquinimod 10 mg/kg oral QD): 0/13
- % inhibition 1 (incidence) [1, 3]: 38.5%
- % inhibition 2 (MMS) [1, 3]: 43.8%
- % inhibition 3 (GMS); Activity [1, 3]: 60%
- % inhibition 3 (GMS); Activity ([1]; Laquinimod 10 mg/kg oral QD, compared to vehicle, listed as laquinimod): 60%
- GMS value (group mean score) ([1]; Laquinimod 10 mg/kg oral QD, listed as Laquinmod): 0.8 ± 0.8
- Activity compared to Laquinimod ([1]; Laquinimod 10 mg/kg): 60%
- GMS value (group mean score) ([1]; Laquinimod 25 mg/kg oral QD): 0.3
- Incidence ([1]; Laquinimod 25 mg/kg oral QD): 5/15
- MMS value (mean maximal score) ([1]; Laquinimod 25 mg/kg oral QD): 0.8 ± 1.3
- Mean Duration ([1]; Laquinimod 25 mg/kg oral QD): 5.0 ± 7.4 days
- Mean Onset ([1]; Laquinimod 25 mg/kg oral QD): 25.7 ± 7.8 days
- Mortality ([1]; Laquinimod 25 mg/kg oral QD): 0/15
- % inhibition 1 (incidence) [1, 4]: 37.5%
- % inhibition 2 (MMS) [1, 4]: 55.5%
- % inhibition 3 (GMS) [1, 4]: 62.5%
- % inhibition 1 (incidence) [1, 5]: 61.5%
- % inhibition 2 (MMS) [1, 5]: 75.0%
- % inhibition 3 (GMS); Activity [1, 5]: 85%
- % inhibition 3 (GMS); Activity ([1]; Laquinimod 25 mg/kg oral QD, compared to vehicle, listed as Laquiniomd): 85.0%
- GMS value (group mean score) ([1]; Laquinimod 25 mg/kg oral QD, listed as Laquiniomd): 0.3 ± 0.5
- GMS value (group mean score) ([1]; Laquinimod 25 mg/kg oral QD, listed as Laquinmod): 0.3 ± 0.5
- Activity compared to Laquinimod ([1]; Laquinimod 25 mg/kg): 85%
- Activity compared to interferon-β (500,000 IU/mouse) ([1]; Laquinimod 25 mg/kg, according to GMS): 66.7%^
- Oral bioavailability [2]: high
- Safety and tolerability profile (Multiple Sclerosis): favorable
